Laboratory results published in patent publication US11685746B2, “Heteroaryl compounds for treating Huntington's disease” (PTC THERAPEUTICS, INC., priority 2018, dated 2023).

system: Endogenous Huntingtin Protein; experiment: Endogenous Huntingtin Protein Assay (MSD plates, MW1 or MAB2166 capture antibody); assay type: cell-based; conditions: Table 1
Summary of the method: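 Endogenous huntingtin was captured overnight at 4° C on wells coated with 1 μg/mL MW1 (polyglutamine-specific) or MAB2166. Detection used rabbit #5656S and then goat anti-rabbit SULFO-TAG, both at 0.25 μg/mL and 1 h at room temperature. Plates were imaged on the MSD system in read buffer T.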

`Cn1ccc(-c2ccc(-c3nc4sc(OC5CC(C)(C)NC(C)(C)C5)nc4s3)c(O)c2)cc1=O` [Compound 38, 4-(3-hydroxy-4-{5-[(2,2,6,6-tetramethylpiperidin-4-yl)oxy][1,3]thiazolo[5,4-d][1,3]thiazol-2-yl}phenyl)-1-methylpyridin-2(1H)-one] and `CN(c1nc2sc(-c3cnc(-c4cn[nH]c4)nc3)nc2s1)C1CC(C)(C)NC(C)(C)C1` [Compound 137, N-methyl-5-[2-(1H-pyrazol-4-yl)pyrimidin-5-yl]-N-(2,2,6,6-tetramethylpiperidin-4-yl)[1,3]thiazolo[5,4-d][1,3]thiazol-2-amine] cannot be ordered by IC50: 100 to 500 nM for the first, no more than 100 nM for the second.

`CC(C)N1CCC(N(C)c2nc3sc(-c4ncc(-c5cn[nH]c5)c5cc[nH]c45)nc3s2)CC1` [Compound 121, N-methyl-N-[1-(propan-2-yl)piperidin-4-yl]-5-[4-(1H-pyrazol-4-yl)-1H-pyrrolo[2,3-c]pyridin-7-yl][1,3]thiazolo[5,4-d][1,3]thiazol-2-amine] and `C[C@@H]1C[C@@H](N(C)c2nc3sc(-c4ncc(-c5cnn(C)c5)c5cc[nH]c45)nc3s2)CCN1` [Compound 91, N-methyl-N-[(2R,4S)-2-methylpiperidin-4-yl]-5-[4-(1-methyl-1H-pyrazol-4-yl)-1H-pyrrolo[2,3-c]pyridin-7-yl][1,3]thiazolo[5,4-d][1,3]thiazol-2-amine] cannot be ordered by IC50: no more than 100 nM for the first, no more than 100 nM for the second.

`CN(c1nc2sc(-n3ccc(-c4cn[nH]c4)cc3=O)nc2s1)[C@@H]1C[C@H]2CC[C@@H](C1)N2C` [Compound 178, 1-(5-{methyl[(1R,3s,5S)-8-methyl-8-azabicyclo[3.2.1]octan-3-yl]amino}[1,3]thiazolo[5,4-d][1,3]thiazol-2-yl)-4-(1H-pyrazol-4-yl)pyridin-2(1H)-one] and `C[C@H]1C[C@H](Oc2nc3sc(-c4ncc(-c5cn[nH]c5)c5cc[nH]c45)nc3s2)CCN1C` [Compound 84, 7-(5-{[(2S,4R)-1,2-dimethylpiperidin-4-yl]oxy}[1,3]thiazolo[5,4-d][1,3]thiazol-2-yl)-4-(1H-pyrazol-4-yl)-1H-pyrrolo[2,3-c]pyridine] cannot be ordered by IC50: no more than 100 nM for the first, no more than 100 nM for the second.
